Measured values from publication PMC10762078, “Role of UPF1-LIN28A interaction during early differentiation of pluripotent stem cells” (Nature Communications, 2024).

Columns and labels:
[1] = system: nonsense-mediated mRNA decay (NMD); experiment: NMD reporter mRNA by RT-qPCR in UPF1-depleted HeLa cells with FLAG-LIN28A and CPP-peptides (Supplementary Fig. 5d); type: cell-based; conditions: siUPF1 + FLAG-LIN28A, 2 μM, n = 3
Protocol: (§1) For CPP-conjugated peptide delivery, HeLa, 293T, and PA-1 cells were incubated with CPP-conjugated peptides or CPP-FITC at 2 μM in DMEM with 10% FBS for 12 h a day before cell harvest. hPSCs were treated with CPP-conjugated peptides at 10 μM in mTeSR Plus Medium, and the peptide-containing medium was changed every day over 10 days. The ROCK inhibitor (Tocris Bioscience, Y-27632) treated-hPSCs were dissociated into single cells using Accutase (Merck, SCR005) and differentiated into ectoderm, mesoderm, and endoderm using the STEMdiff Trilineage Differentiation Kit ([…] Technologies, 05230) following the manufacturer’s protocol. Differentiated cells treated with CPP-conjugated peptides were analysed at 0, 3, and 5 days for ectoderm and endoderm, and at 0, 3, and 4 days for mesoderm. […]
(§2) cDNA was synthesised using RevertAid Reverse Transcriptase (Thermo Fisher Scientific, EP0441) with synthesised random hexamer (Macrogen) for total RNA or stem-loop primers for miRNA. For RT-qPCR reactions, the SensiFAST SYBR No-ROX kit (Meridian Bioscience) was used according to the manufacturer’s protocol. All data analysis and visualisation were conducted using R 3.6.1 [www.r-project.org] or GraphPad Prism 10. RT primers for miRNA and RT-qPCR primer sequences are provided in Supplementary Data 6. […]

[2] = system: nonsense-mediated mRNA decay (NMD); experiment: NMD reporter mRNA by RT-qPCR in HeLa cells without LIN28A, with CPP-peptides (Supplementary Fig. 5c); type: cell-based; conditions: no LIN28A, 2 μM, n = 5
Protocol: as §1, §2

[3] = system: lineage markers in CHA15 cells; experiment: RNA-seq of CHA15 cells during ectodermal, mesodermal and endodermal differentiation with CPP-peptides (Fig. 7a); type: cell-based, Homo sapiens; conditions: CHA15, 5 days
Protocol: For CPP-conjugated peptide delivery, HeLa, 293T, and PA-1 cells were incubated with CPP-conjugated peptides or CPP-FITC at 2 μM in DMEM with 10% FBS for 12 h a day before cell harvest. hPSCs were treated with CPP-conjugated peptides at 10 μM in mTeSR Plus Medium, and the peptide-containing medium was changed every day over 10 days. The ROCK inhibitor (Tocris Bioscience, Y-27632) treated-hPSCs were dissociated into single cells using Accutase (Merck, SCR005) and differentiated into ectoderm, mesoderm, and endoderm using the STEMdiff Trilineage Differentiation Kit ([…] Technologies, 05230) following the manufacturer’s protocol. Differentiated cells treated with CPP-conjugated peptides were analysed at 0, 3, and 5 days for ectoderm and endoderm, and at 0, 3, and 4 days for mesoderm.
Total RNA concentration was calculated using Quant-IT RiboGreen (Invitrogen, R11490). […] The libraries were quantified using the KAPA Library Quantification Kits for Illumina Sequencing platforms according to the qPCR Quantification Protocol Guide (KAPA BIOSYSTEMS, KR0405) and qualified using the TapeStation D1000 ScreenTape (Agilent). […]
We pre-processed the raw reads from the sequencer to remove low-quality reads and adapter sequences before analysis and aligned the processed reads to Homo sapiens (GRCh37) using HISAT v2.1.0[52]. […]

## KKKWCRKKKSSADEKRYRALKRTAERELLMNA [CPP-P8, CPP conjugated to P8]
[1]
  effect on NMD in absence of UPF1: did not affect NMD in the absence of LIN28A or UPF1
[2]
  effect on NMD in absence of LIN28A: did not affect NMD in the absence of LIN28A
[3]
  ectodermal marker levels: overall reduced the levels of its marker, in contrast to mesodermal and endodermal differentiation
